Test results: PMC5564531, “Evaluation of radiofluorinated carboximidamides as potential IDO-targeted PET tracers for cancer imaging” (Oncotarget, 2017)
Blank lines part the entries; values can stand above or below the compound they belong to.

Columns and labels:
[1] = system: Hela, PANC02, HCT116, and 4T1 cells; test: HeLa cell uptake of radioligands; type: cell-based
Experimental: HeLa cells were seeded in a 24 well culture plate at a density of 2 × 10^4 per well in 400 μL culture media w/ FBS (n=3). After overnight incubation (16 h), human IFN-γ (25ng/well, 50 ng/mL final concentration) in 100 μL DMEM with FBS were added into cells. The cells were rinsed with phosphate-buffered saline (PBS), 500 μL of Earle's Minimum Essential Medium (EMEM) (ATCC 30-2003), and 10 % fetal bovine serum was added to the culture wells. […] At each given time point, the cell supernatants were discarded and cells were washed 3 times with PBS (0.5 mL).

Human IDO = molecular target: T1, Human IDO (Homo sapiens, UniProt P14902); test: IDO enzyme inhibition assay (kynurenine formation, absorbance 492 nm); type: biochemical; settings: recombinant human IDO; mean of n ≥ 3, ± SD
T1 construct: purchased Enzo Life Sciences (enzolifesciences.com) ALX-201-333-C050
T1 sequence (P14902 whole entry): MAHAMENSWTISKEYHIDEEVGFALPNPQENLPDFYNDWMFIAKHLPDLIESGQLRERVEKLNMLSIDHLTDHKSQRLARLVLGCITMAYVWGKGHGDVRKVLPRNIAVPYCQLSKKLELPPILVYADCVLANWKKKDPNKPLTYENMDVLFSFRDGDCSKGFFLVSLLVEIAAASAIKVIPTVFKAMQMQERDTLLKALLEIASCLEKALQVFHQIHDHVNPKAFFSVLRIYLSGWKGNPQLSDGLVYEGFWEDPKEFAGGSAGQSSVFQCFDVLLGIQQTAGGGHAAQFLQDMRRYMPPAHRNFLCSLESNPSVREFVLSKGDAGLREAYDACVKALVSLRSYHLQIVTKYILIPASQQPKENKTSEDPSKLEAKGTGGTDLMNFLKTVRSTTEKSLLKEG
Experimental: (§1) The percent inhibition at individual concentrations was determined and the average values of duplicates were obtained. The data was processed using nonlinear regression to generate IC50 values (Prism Graphpad).

[2] = molecular target: T2, IDO1 in IFN-γ stimulated HeLa cells (Homo sapiens, UniProt P14902); test: IDO HeLa cells assay (IFN-γ induced IDO activity, kynurenine in supernatant); type: cell-based; settings: IFN-γ 50 ng/mL, 48 h incubation, read-out: Inhibition of IFN-γ induced IDO activity in HeLa cells (IC50)
T2 construct: native IDO1 in HeLa cells; endogenous in cells; host or cells: HeLa cells stimulated with human IFN-γ
T2 sequence (P14902 whole entry): as above
Experimental: as §1

IDO1 [3] = system: IDO1; design: method as in PMID 19507862; settings: in both biochemical and cellular assays; cited from earlier work
IDO1 [4] = system: IDO1; design: method as in PMID 20197554, PMID 20124451; settings: Phase I dose-escalation trial, generally well-tolerated doses; cited from earlier work
[5] = rapid clearance rate; species and reference not given; cited from earlier work
[6] = Lipophilicity, shake-flask method (n-octanol/PBS pH 7.4); type: physicochemical; settings: n-octanol/buffer pH 7.4, n=3
Experimental: [^18F]IDO49 (2-30 kBq in 30μL of water) was added to a two-layer system of n-octanol (500 μL) and 0.1 M phosphate buffered saline (PBS) pH 7.4 (500 μL) in an Eppendorf vial. The vessel was vortexed for 3min and then centrifuged at 10,000 rpm for 2 min. An aliquot of each layer (100 μL) was assessed for radioactivity in a wipe counter. The partition coefficient (logD7.4) was calculated as the decimal logarithm of the ratio between the counted radioactivity in the n-octanol layer and the counted radioactivity in the aqueous layer (count of n-octanol sample – count of background) / (count of PBS sample – count of background). CLogP (calculated LogP) values were determined using CHEMBIODRAW ULTRA 12.0 software (Cambridge soft. Perkin-Elmer, Waltham, MA, USA).

[7] = In vitro stability in mouse serum by radio-TLC; type: in vitro ADME; settings: 37°C, 3 h
Experimental: Two-hundred microliter samples were collected at 3 h and analyzed by radio-TLC.

Hela tumor xenografts = test: MicroPET imaging of HeLa tumor xenografts with rHu IFN-γ treatment; type: in vivo, mouse; settings: 60 min postinjection, IFN-γ treated HeLa tumor bearing mice, p < 0.05
Experimental: Female athymic C57BL/6 nude mice (4-6 weeks old) were ordered from Charles River Laboratories (Stone Ridge, NY, U.S.A.) and housed in a temperature and humidity controlled room. After 7 to 14 days of acclimatization, a total of 5 ×10^6 Hela cells were inoculated subcutaneously in 200 μL serum-free medium into the right flank of hind leg. Once tumors reached an appropriate size (3-4 mm in diameter) the mice were randomized into 5 groups (4/group). Then the mice in each group were randomized into two subgroups (rHu IFN- γ treatment or no rHu IFN- γ treatment). All the rHu IFN- γ treatment mice were injected i.p. of 1.5×10^5 U rHu IFN- γ /mouse/day. Group one mice were anesthetized by gas inhalation (2% vol/vol isoflurane in oxygen) 24 h later. Then the mice were euthanized and tumor tissues were dissected for further IDO1 western blotting and IHC. The same operation was repeated at 48h, 72h, 96h and 120h points.
In order to evaluate the in vivo imaging performance of [^18F]IDO49 to IDO1 tumors, microPET imaging was performed on nude mice bearing Hela tumor xenografts with and without rHu IFN- γ treatment treatment using the Inveon small-animal PET/CT scanner (Siemens). Anesthesia was induced with 4− 5% isoflurane and maintained with 1− 3% isofluorane delivered with a mixed air/oxygen through a closed nose cone throughout the PET imaging session. […]

IDO1 in Hela cells = IDO1 in Hela cells (Homo sapiens, UniProt P14902); test: Competitive cell-binding assay of [18F]IDO49 on IFN-γ treated HeLa cells; settings: inhibitors 1-10000 nM, 30 min incubation
Chain of IDO1 in Hela cells (P14902 whole entry): as above

SMILES: Cn1cc(C[C@H](N)C(=O)O)c2ccccc21 [1-L-MT, reference compound]
effect on uptake of [18F]IDO5L by HeLa at 120 min ([1]; 1000 μM 1-L-MT, n=4): strong inhibition

SMILES: NS(=O)(=O)NCCNc1nonc1C(=NO)Nc1ccc(F)c(Br)c1 [INCB024360]
inhibition of IDO1 activity (IDO1 [4]): greater than 90%
t1/2 (clearance rate) [5]: < 30 min

SMILES: Nc1nonc1/C(=N/O)Nc1ccc([18F])c(Cl)c1 [[^18F]IDO5L]
logD7.4 [6]: 2.13 ± 0.11
radioactivity in the intact radioligand [7]: > 95%
time of peak cellular uptake ([1]; Hela, PANC02, HCT116 and 4T1 cells, assayed at 30, 60, 120 mins, n=3): 60 min

More lines, main results first:

IC50 (Human IDO): 95.5 ± 10.4 nM
IC50 [2]: 11.9 nM
SMILES: ON=C(Nc1ccc(F)c(Cl)c1)c1nonc1NCCF [IDO49, N-(3-chloro-4-fluorophenyl)-4-((2-fluoroethyl)amino)-N'-hydroxy-1,2,5-oxadiazole-3-carboximidamide]

logD ([6]; n-octanol/PBS, read-out: logD7.4): 1.37 ± 0.02
radioactivity in the intact radioligand [7]: > 95%
[18F]IDO49 uptake in Hela cells when co-incubated with NLG919 and INCB024360 (IDO1 in Hela cells): decreased in a dose-dependent manner
SMILES: ON=C(Nc1ccc(F)c(Cl)c1)c1nonc1NCC[18F] [[^18F]IDO49]
tumor to muscle (T/M) uptake ratio, peak (Hela tumor xenografts): 2.29 ± 0.05
